# Reference: PubChem BioAssay (NCI)
#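 Briefly, cells in 96-well plates were exposed to five compound concentrations for 48 h, and endpoints were estimated by linear interpolation. TGI: total growth inhibition.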
# Key:
# Assay in all cases: inhibition of tumour cell growth, NCI panel, 48 h
# [1] = test system: SN12C renal
# [2] = test system: OVCAR-5 ovarian
# [3] = test system: MOLT-4 leukemia
# [4] = test system: OVCAR-3 ovarian
# [5] = test system: SK-MEL-2 melanoma
# [6] = test system: OVCAR-4 ovarian
# [7] = test system: OVCAR-8 ovarian
# [8] = test system: COLO 205 colon
# [9] = test system: SW-620 colon
# [10] = test system: U251 CNS
# [11] = test system: NCI-H522 lung
# [12] = test system: DLD-1 colon
# [13] = test system: ACHN renal
# [14] = test system: HCT-116 colon
# [15] = test system: SNB-19 CNS
# [16] = test system: KM20L2 colon
# [17] = test system: UACC-62 melanoma
# [18] = test system: DMS 273 small cell lung
# [19] = test system: SR leukemia
# [20] = test system: SF-295 CNS
# [21] = test system: LOX IMVI melanoma
# [22] = test system: UO-31 renal
# [23] = test system: HCT-15 colon
# [24] = test system: HT29 colon
# [25] = test system: SNB-75 CNS
# [26] = test system: SK-OV-3 ovarian
# [27] = test system: HOP-92 NSCLC
# [28] = test system: MALME-3M melanoma
# [29] = test system: HOP-62 NSCLC
# [30] = test system: CAKI-1 renal
# [31] = test system: SNB-78 CNS
# [32] = test system: IGROV1 ovarian
# [33] = test system: HCC-2998 colon
# [34] = test system: SF-268 CNS
# [35] = test system: LXFL 529 NSCLC
# [36] = test system: XF 498 CNS
# [37] = test system: RXF-631 renal
# [38] = test system: KM12 colon
# [39] = test system: SK-MEL-28 melanoma
# [40] = test system: K-562 leukemia
# [41] = test system: M14 melanoma
# [42] = test system: HL-60(TB) leukemia
# [43] = test system: M19-MEL melanoma
# [44] = test system: TK-10 renal
# [45] = test system: RPMI-8226 leukemia
# [46] = test system: UACC-257 melanoma
# [47] = test system: DMS 114 small cell lung
# [48] = test system: NCI-H460 lung
# [49] = test system: A498 renal
# [50] = test system: NCI-H226 lung
# [51] = test system: 786-0 renal
# [52] = test system: NCI-H23 lung
# [53] = test system: SF-539 CNS
# [54] = test system: RXF 393 renal
# [55] = test system: CCRF-CEM leukemia
# [56] = test system: A549 NSCLC
# [57] = test system: EKVX NSCLC
# [58] = test system: SK-MEL-5 melanoma
# [59] = test system: HOP-18 NSCLC
structure (smiles),measurement,setting,value
O=[N+]([O-])c1ccc(-c2ccc(-c3csc(Nc4ccccn4)n3)o2)cc1,TGI,[1],> 100 µM
same,TGI,[2],> 100 µM
same,TGI,[3],> 100 µM
same,TGI,[4],> 100 µM
same,TGI,[5],> 100 µM
same,TGI,[6],50 µM
same,TGI,[7],> 100 µM
same,TGI,[8],> 100 µM
same,TGI,[9],> 100 µM
same,TGI,[10],28.5 µM
same,TGI,[11],> 100 µM
same,TGI,[12],> 100 µM
same,TGI,[13],> 100 µM
same,TGI,[14],> 100 µM
same,TGI,[15],77.4 µM
same,TGI,[16],> 100 µM
same,TGI,[17],> 100 µM
same,TGI,[18],> 100 µM
same,TGI,[19],> 100 µM
same,TGI,[20],> 100 µM
same,TGI,[21],> 100 µM
same,TGI,[22],> 100 µM
same,TGI,[23],> 100 µM
same,TGI,[24],> 100 µM
same,TGI,[25],> 100 µM
same,TGI,[26],> 100 µM
same,TGI,[27],> 100 µM
same,TGI,[28],> 100 µM
same,TGI,[29],62.4 µM
same,TGI,[30],> 100 µM
same,TGI,[31],> 100 µM
same,TGI,[32],> 100 µM
same,TGI,[33],> 100 µM
same,TGI,[34],> 100 µM
same,TGI,[35],76.8 µM
same,TGI,[36],49.9 µM
same,TGI,[37],> 100 µM
same,TGI,[38],> 100 µM
same,TGI,[39],> 100 µM
same,TGI,[40],> 100 µM
same,TGI,[41],> 100 µM
same,TGI,[42],> 100 µM
same,TGI,[43],> 100 µM
same,TGI,[44],56.1 µM
same,TGI,[45],> 100 µM
same,TGI,[46],> 100 µM
N#Cc1cc([N+](=O)[O-])ccc1NC(=O)C(=O)Nc1n[nH]c(N)n1,TGI,[47],> 100 µM
same,TGI,[48],> 100 µM
same,TGI,[1],> 100 µM
same,TGI,[49],> 100 µM
same,TGI,[2],> 100 µM
same,TGI,[3],> 100 µM
same,TGI,[50],> 100 µM
same,TGI,[51],> 100 µM
same,TGI,[52],> 100 µM
same,TGI,[53],> 100 µM
same,TGI,[4],> 100 µM
same,TGI,[5],> 100 µM
same,TGI,[54],> 100 µM
same,TGI,[6],> 100 µM
same,TGI,[7],> 100 µM
same,TGI,[8],> 100 µM
same,TGI,[9],> 100 µM
same,TGI,[10],> 100 µM
same,TGI,[11],> 100 µM
same,TGI,[12],> 100 µM
same,TGI,[13],> 100 µM
same,TGI,[14],> 100 µM
same,TGI,[15],> 100 µM
same,TGI,[55],> 100 µM
same,TGI,[56],> 100 µM
same,TGI,[16],> 100 µM
same,TGI,[17],> 100 µM
same,TGI,[18],> 100 µM
same,TGI,[21],> 100 µM
same,TGI,[57],> 100 µM
same,TGI,[22],> 100 µM
same,TGI,[23],> 100 µM
same,TGI,[24],> 100 µM
same,TGI,[25],> 100 µM
same,TGI,[26],> 100 µM
same,TGI,[27],> 100 µM
same,TGI,[28],> 100 µM
same,TGI,[29],> 100 µM
same,TGI,[30],> 100 µM
same,TGI,[31],> 100 µM
same,TGI,[32],> 100 µM
same,TGI,[33],> 100 µM
same,TGI,[34],> 100 µM
same,TGI,[35],> 100 µM
same,TGI,[36],> 100 µM
same,TGI,[37],> 100 µM
same,TGI,[38],> 100 µM
same,TGI,[39],> 100 µM
same,TGI,[40],> 100 µM
same,TGI,[58],> 100 µM
same,TGI,[41],> 100 µM
same,TGI,[42],> 100 µM
same,TGI,[43],> 100 µM
same,TGI,[44],> 100 µM
same,TGI,[45],> 100 µM
same,TGI,[46],> 100 µM
O=C(Nc1cccc(O)c1)C(=O)C(C(=O)c1ccccc1F)C1OC(=O)c2ccccc21 (configuration not stated),TGI,[47],40.7 µM
same,TGI,[48],94.9 µM
same,TGI,[1],> 100 µM
same,TGI,[49],> 100 µM
same,TGI,[2],> 100 µM
same,TGI,[3],> 100 µM
same,TGI,[50],49.1 µM
same,TGI,[52],88.2 µM
same,TGI,[53],40.2 µM
same,TGI,[5],62.2 µM
same,TGI,[54],39.8 µM
same,TGI,[6],> 100 µM
same,TGI,[7],30.5 µM
same,TGI,[8],48.3 µM
same,TGI,[9],> 100 µM
same,TGI,[10],26.9 µM
same,TGI,[11],63.9 µM
same,TGI,[12],> 100 µM
same,TGI,[13],> 100 µM
same,TGI,[14],33.9 µM
same,TGI,[15],68 µM
same,TGI,[55],68.5 µM
same,TGI,[56],> 100 µM
same,TGI,[16],58.9 µM
same,TGI,[17],37.8 µM
same,TGI,[18],98.1 µM
same,TGI,[19],83.7 µM
same,TGI,[20],> 100 µM
same,TGI,[21],47.1 µM
same,TGI,[57],> 100 µM
same,TGI,[22],96.8 µM
same,TGI,[23],49.2 µM
same,TGI,[24],> 100 µM
same,TGI,[25],53.1 µM
same,TGI,[26],> 100 µM
same,TGI,[27],> 100 µM
same,TGI,[29],> 100 µM
same,TGI,[30],94 µM
same,TGI,[31],92.9 µM
same,TGI,[32],> 100 µM
same,TGI,[33],39.4 µM
same,TGI,[34],74.7 µM
same,TGI,[35],88.8 µM
same,TGI,[37],93.5 µM
same,TGI,[38],71 µM
same,TGI,[39],92.9 µM
same,TGI,[40],> 100 µM
same,TGI,[58],> 100 µM
same,TGI,[41],> 100 µM
same,TGI,[42],87.7 µM
same,TGI,[43],54.4 µM
same,TGI,[44],> 100 µM
same,TGI,[45],87.8 µM
same,TGI,[46],> 100 µM
CCCCN=C(NC#N)NCCCC,TGI,[47],> 100 µM
same,TGI,[48],> 100 µM
same,TGI,[1],> 100 µM
same,TGI,[49],> 100 µM
same,TGI,[2],> 100 µM
same,TGI,[3],> 100 µM
same,TGI,[50],> 100 µM
same,TGI,[51],> 100 µM
same,TGI,[52],> 100 µM
same,TGI,[53],> 100 µM
same,TGI,[4],> 100 µM
same,TGI,[5],> 100 µM
same,TGI,[54],> 100 µM
same,TGI,[6],> 100 µM
same,TGI,[7],> 100 µM
same,TGI,[8],98.9 µM
same,TGI,[9],42 µM
same,TGI,[10],> 100 µM
same,TGI,[11],> 100 µM
same,TGI,[12],> 100 µM
same,TGI,[13],> 100 µM
same,TGI,[14],> 100 µM
same,TGI,[15],> 100 µM
same,TGI,[56],> 100 µM
same,TGI,[16],> 100 µM
same,TGI,[17],> 100 µM
same,TGI,[18],> 100 µM
same,TGI,[19],> 100 µM
same,TGI,[20],> 100 µM
same,TGI,[57],> 100 µM
same,TGI,[22],> 100 µM
same,TGI,[23],> 100 µM
same,TGI,[24],> 100 µM
same,TGI,[25],> 100 µM
same,TGI,[26],> 100 µM
same,TGI,[27],> 100 µM
same,TGI,[28],> 100 µM
same,TGI,[29],> 100 µM
same,TGI,[30],> 100 µM
same,TGI,[31],> 100 µM
same,TGI,[32],> 100 µM
same,TGI,[33],> 100 µM
same,TGI,[34],> 100 µM
same,TGI,[35],> 100 µM
same,TGI,[36],> 100 µM
same,TGI,[37],> 100 µM
same,TGI,[59],> 100 µM
same,TGI,[38],> 100 µM
same,TGI,[39],> 100 µM
same,TGI,[40],> 100 µM
same,TGI,[58],> 100 µM
same,TGI,[41],> 100 µM
same,TGI,[43],> 100 µM
same,TGI,[44],> 100 µM
same,TGI,[45],> 100 µM
same,TGI,[46],> 100 µM
